Results: patent publication US20110313021A1, “Method to rapidly identify critical p53 target genes that can be utilized for therapeutic intervention” (priority 2010, published 2011)
pIC50: −log10 of the molar value.

Molecular target: T1, GST-tagged recombinant MCAK protein (amino acids 182 to 646 of the human MCAK protein) (Homo sapiens, UniProt Q99661)
T1 construct: corresponding to amino acids 182 to 646 of the human MCAK protein; GST; purchased Cytoskeleton, Denver Colo
Experiment: MCAK ATPase assay
Assay type: biochemical
Conditions: dose-response, read-out: 50% inhibitory concentration (IC50) for MCAK activity
Description: Based on the instant data supporting a role for MCAK in p53 mediated cell death, it can be reasoned that MCAK will also fill a therapeutic niche for rational drug design targeting the mitotic checkpoint. Importantly, cancer cells with abrogated p53 contain high levels of MCAK, thereby providing a genetic determinant for therapeutic use of MCAK inhibitors. Accordingly, the inventor sought to identify and characterize inhibitors of MCAK function. MCAK utilizes the energy of Adenosine triphosphate (ATP) hydrolysis to carry out its MT depolymerization function. The inventor exploited this characteristic to utilize and optimize a commercially available in vitro assay that measures MCAK ATPase activity (Cytoskeleton, Denver Colo.). The components of the assay are: recombinant MCAK protein, ATP, pre-formed MTs, detection reagent for inorganic phosphate (Pi), and the appropriate buffers for the reaction. We utilized a glutathione S-transferase (GST)-tagged recombinant MCAK protein corresponding to amino acids 182 to 646 of the human MCAK protein, a region of the protein that contains the kinesin motor domain of MCAK. The ATPase activity of MCAK directly correlates to the presence of Pi in the reaction mixture.
The inventor used the MCAK ATPase to carry out a high-throughput screen (HTS) of a library of synthetic small molecules and various natural products. […]

T1 sequence (Q99661 182-646): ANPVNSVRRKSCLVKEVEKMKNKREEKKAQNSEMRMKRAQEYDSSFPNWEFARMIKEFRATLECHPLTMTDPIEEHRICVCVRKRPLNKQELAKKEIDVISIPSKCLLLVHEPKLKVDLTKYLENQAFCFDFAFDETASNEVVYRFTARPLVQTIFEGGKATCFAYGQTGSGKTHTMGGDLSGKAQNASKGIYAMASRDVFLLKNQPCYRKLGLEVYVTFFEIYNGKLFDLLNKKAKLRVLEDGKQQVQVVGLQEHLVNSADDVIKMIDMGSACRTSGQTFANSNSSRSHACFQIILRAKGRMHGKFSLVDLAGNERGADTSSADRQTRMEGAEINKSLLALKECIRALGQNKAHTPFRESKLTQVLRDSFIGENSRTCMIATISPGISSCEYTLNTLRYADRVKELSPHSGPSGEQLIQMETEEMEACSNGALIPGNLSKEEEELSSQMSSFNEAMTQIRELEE

`Cc1cc2c(C(C)C)c(O)c(O)c(C=O)c2c(O)c1-c1c(C)cc2c(C(C)C)c(O)c(O)c(C=O)c2c1O` [gossypol] gave a pIC50 of ~4.96.
